Test results reported in patent US5525623A, “Compositions and methods for the treatment of immunomediated inflammatory disorders” (Arris Pharmaceutical Corporation, priority 1994, dated 1996).

Experiments:
[1] = target: T1, Tryptase (Homo sapiens, UniProt Q15661); assay: In Vitro Tryptase Inhibition Assay (hydrolysis of tosyl-GlyProLys-p-nitroanilide, Tris-HCl pH 8.2); type: biochemical
Method: Table II lists the inhibition constants (Ki ', micromolar (μM)) which were determined for several of the compounds of the present invention, wherein R^1 is hydrogen; R^2 is hydrogen; R^3 is --(CH2)3 --NH--(C=NH)--NH2; R^4 and R^5, together with the nitrogen and carbon to which they are attached form a five-membered heterocycle; and R^6 is hydrogen. […] Unlike Ki, Ki ' may not be a true dissociation constant of the enzyme-inhibitor complex; Ki ' is equal to Ki for a noncompetitive inhibitor and is directly proportional to Ki for competitive and uncompetitive inhibitors.
Generally, the assay conditions are light sensitive and variations in ambient light intensity may affect assay reproducibility. As a result of this potential source of error, some assays were run under dark conditions. The Ki 's reported in Tables II and III without parentheses were determined under conditions of ambient light. Ki 's reported with parentheses were determined under "dark" conditions as defined above.

[2] = target: T1, Tryptase; assay: biochemical; details: for Ki: Table IV
Method: Compounds (approx. 1 mg) to be assayed against tryptase were reconstituted in dimethylsulfoxide (DMSO) and diluted 1:10 into buffer containing 50 millimolar (mM) Tris-HCl at pH 8.2, and containing 100 mM NaCl, 0.05% Tween-20. Seven additional 3-fold dilutions were made from the initial dilution into the same buffer supplemented with 10% DMSO. Aliquots (50 μl) from each of the eight dilutions in the series were transferred to individual wells in a 96-well U-bottom microtiter plate. Tryptase (25 μl; 0.5 nM final concentration) was added to each well and the samples were mixed and incubated for 1 hr at room temperature under either ambient light (i.e., the light available in the room during the experiment) or under controlled "light" or "dark" conditions. "Light conditions" refers herein to a light intensity of 400-450 footcandles from a fluorescent bulb. "Dark" refers herein to sample containers wrapped in aluminum foil. The enzyme reaction was then initiated with the addition of the synthetic tripeptide substrate, tosyl-GlyProLys-p-nitroanilide (25 μl; 0.5 mM final concentration). The microtiter plates were immediately transferred to a UV/MAX Kinetic Microplate Reader (Molecular Devices) and hydrolysis of the chromogenic substrate was followed spectrophotometrically at […] for 5 minutes. […] Initial velocity measurements, calculated from progress curves by a kinetic analysis program called "BatchKi" (available commercially from Biokin Ltd., of Madison Wis.), were used to determine apparent inhibition constants for each inhibitor. This program is designed to perform regressions and curve-fitting of non-linear data.
Compound 3 was assayed against tryptase at four different pH's in the following buffer system: 120 mM NaCl, 2.7 mM KCl, 0.13 mM NaH2 PO4, 0.896 mM Na2 HPO4. The final buffer system used included 0.05% of Tween-20.
Thus, the assay procedure described above was performed wherein the dilution of Compound 3 and the addition of tryptase was done under ambient light at room temperature (22°-26° C.). The assay plate was wrapped in aluminum foil for a 1-hr incubation before substrate addition, which was also done under ambient light.

[3] = test system: allergic sheep; assay: Allergic sheep model of asthma: specific lung resistance (SRL) after antigen challenge; type: in vivo; details: 9 mg aerosol 0.5 h before, 4 h and 24 h after antigen challenge
Method: (§1) The initial asthmatic response can be evaluated in guinea pigs, and dogs, and particularly, with a basenji-greyhound cross strain which develops nonspecific airway hyperresponsiveness to numerous nonallergenic substances, such as methacholine and citric acid. […] In dual responding animals, the initial asthmatic response (IAR) is followed by a late asthmatic response (LAR) at 6-8 hours post-exposure.
(§2) The allergic sheep model was used to evaluate the potential antiasthmatic effects of the compounds of the present invention.
(§3) The allergic sheep model of asthma was employed in these studies. These methods have been published previously (see Abraham et al. (1983) Am. Rev. Respir. Dis. 128:839-844; Allegra et al. (1983) J. Appl. Physiol. 55:726-730; Russi et al. (1985) J. Appl. Physiol. 59:1416-1422; Soler et al. ((1989) J. Appl. Physiol. 67:406-413. Each sheep served as its own control. Body weights for these animals ranged from 20-50 kilograms.
(§4) In these studies, 9 mg of Compound 3 of Tables I and II was dissolved in 3 mL buffered saline and the total solution delivered as an aerosol 0.5 hours before, 4 hours after, and 24 hours after antigen challenge (total dose=27; n=6). In the control (vehicle only) trial, antigen challenge caused peak early and late increases above baseline in specific lung resistance (SRL) of 374±104% and 212±21% (mean±SE). In contrast, when the sheep were treated with Compound 3 of Tables I and II, the early and late increases in SRL were 280±39% and 72±9% (p <0.05 vs. control, Wilcoxon signed rank test). The peak early response was taken as the average of the maximum values occurring immediately post-challenge. Peak late responses were calculated by averaging the maximum response values obtained for each animal within the 6-8 hour time period. This approach is conservative and eliminates the possible reduction in the late response due simply to averaging.

[4] = test system: allergic sheep; assay: Allergic sheep model: airway hyperresponsiveness to carbachol (PC400) 24 hours after antigen challenge; type: in vivo
Method: as §1, §2, §3, §4
Twenty-four hours after antigen challenge in both the control and drug trial, the sheep developed airway hyperresponsiveness. […] Baseline PC400 was 22.0±3.7 breath units in the control trial, falling to 9.1±1.3 breath units after antigen challenge (p<0.05 vs. baseline).

[5] = Table III, asterisk: "light" conditions, 400-450 footcandles
[6] = Table III, parentheses: "dark" conditions (aluminum foil)
[7] = Table II, ambient light (no parentheses)
[8] = Table II, asterisk: "light" conditions, 400-450 footcandles
[9] = Table II, parentheses: "dark" conditions (aluminum foil)

T1 sequence (Q15661 31-275): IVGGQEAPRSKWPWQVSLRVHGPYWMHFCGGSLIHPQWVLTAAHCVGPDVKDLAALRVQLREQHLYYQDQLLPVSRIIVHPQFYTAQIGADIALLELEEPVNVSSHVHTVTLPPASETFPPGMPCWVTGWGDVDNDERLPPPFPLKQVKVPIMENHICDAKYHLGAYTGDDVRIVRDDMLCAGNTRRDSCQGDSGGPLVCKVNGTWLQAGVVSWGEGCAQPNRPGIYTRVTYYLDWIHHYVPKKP

Row | Compound | Ki [1, 7] | Ki [1, 8] | Ki [1, 9] | other results
1 | CN(CC(N)=O)C(=O)[C@H](CCCNC(=N)N)NC(=O)c1c(O)ccc2ccccc12 [Compound 1] |  |  |  | Ki [1, 5]: 3 µM; Ki [1, 6]: 637 µM
2 | Cc1ccc(C(=O)N[C@@H](CCCNC(=N)N)C(=O)N2CCC[C@H]2C(N)=O)c(O)c1 [Compound 2] | > 500 µM |  |  | 
3 | N=C(N)NCCC[C@H](NC(=O)c1ccc2ccccc2c1O)C(=O)N1CCC[C@H]1C(N)=O [Compound 3, 1-hydroxy-2-naphthoyl-L-arginyl-L-proline amide] |  | 0.3 µM | 82 µM | sensitivity to light in the buffer system ([2]; 120 mM NaCl, 2.7 mM KCl, 0.13 mM NaH2PO4, 0.896 mM Na2HPO4, 0.05% Tween-20, pH 7.5): less sensitive to light; Ki ([2]; pH 6.5): 14 µM; Ki ([2]; pH 7.0): 8 µM; Ki ([2]; pH 7.5): 5.4 µM; Ki ([2]; pH 8.0): 6.1 µM; effect on early response [3]: exhibited a tendency to reduce the early response; effect on late response ([3]; FIG. 1): attenuated the late response; late increase in SRL (peak late response above baseline, 6-8 hours) ([3]; n=6, mean±SE, control 212±21%, p <0.05 vs. control): 72±9%; early increase in SRL (peak early response above baseline) ([3]; n=6, mean±SE, control 374±104%): 280±39%; effect on 24 hour hyperresponsiveness ([4]; 24 h after antigen challenge, FIG. 2): blocked the 24 hour hyperresponsiveness; PC400, after antigen challenge ([4]; drug trial, 24 h after antigen challenge, control 9.1±1.3): 17.6±3.5 breath units; PC400 change relative to baseline ([4]; drug trial, after antigen challenge vs. baseline): unchanged relative to baseline; PC400, baseline ([4]; drug trial, baseline (before antigen challenge), control baseline 22.0±3.7): 16.0±3.8 breath units; airway function in allergen challenged sheep ([4]; treatment with Compound 3, allergen challenged sheep): statistically significant improvement in airway function
4 | COC(=O)[C@@H]1C[C@@H](O)CN1C(=O)[C@H](CCCNC(=N)N)NC(=O)c1c(O)ccc2ccccc12 [Compound 4] |  |  |  | Ki ([1]; Table III, ambient light (no parentheses)): 749 µM
5 | CN(C)C(=O)[C@@H]1CCCN1C(=O)[C@H](CCCNC(=N)N)NC(=O)c1c(O)ccc2ccccc12 [Compound 5] | 15 µM |  |  | 
6 | N=C(N)NCCC[C@H](NC(=O)c1ccc2ccccc2c1O)C(=O)N1CCC[C@H]1C(=O)N1CCCC(C(N)=O)C1 (stereo partly shown) [Compound 6] | 82 µM |  |  | 
7 | N=C(N)NCCC[C@H](NC(=O)c1ccc2ccccc2c1O)C(=O)N1CCC[C@H]1C(=O)N1CCC(C(N)=O)CC1 [Compound 7] | 664 µM |  |  | 
8 | COC(=O)[C@@H]1CCCN1C(=O)[C@H](CCCNC(=N)N)NC(=O)c1c(O)ccc2ccccc12 [Compound 8] | 208 µM |  |  | 
9 | N=C(N)NCCC[C@H](NC(=O)c1nc2ccccc2nc1O)C(=O)N1CCC[C@H]1C(N)=O [Compound 9] |  | 23 µM | 56 µM | 
10 | N=C(N)Nc1ccc(C[C@H](NC(=O)c2ccc3ccccc3c2O)C(=O)N2CCC[C@H]2C(N)=O)cc1 [Compound 10] |  |  |  | Ki [1, 5]: 2.5 µM; Ki [1, 6]: 18 µM
11 | N=C(N)NCCC[C@H](NC(=O)c1ccc2ccccc2c1O)C(=O)N1C[C@H](O)C[C@H]1C(N)=O [Compound 11] |  |  |  | Ki [1, 5]: 0.3 µM; Ki [1, 6]: 40 µM
12 | N=C(N)NCCC[C@H](NC(=O)c1ccc2ccccc2c1O)C(=O)N1CCC[C@@H]1C(N)=O [Compound 12] |  |  |  | Ki [1, 5]: 2.5 µM; Ki [1, 6]: 818 µM
13 | N=C(N)NCCC[C@H](NC(=O)c1ccc2ccccc2c1O)C(=O)N1CCC[C@H]1C(=O)N[C@@H](Cc1ccccc1)C(N)=O [Compound 13] |  | 0.6 µM | 110 µM | 
14 | N=C(N)NCCC[C@H](NC(=O)c1cc2ccccc2cc1O)C(=O)N1CCC[C@H]1C(N)=O [Compound 14] |  | 752 µM | 707 µM | 
15 | N=C(N)NCCC[C@H](NC(=O)c1c(O)ccc2ccccc12)C(=O)N1CCC[C@H]1C(N)=O [Compound 15] | 0.84 µM |  |  | 
16 | N=C(N)NCCC[C@H](NC(=O)c1ncccc1O)C(=O)N1CCC[C@H]1C(N)=O [Compound 16] |  | 8 µM | 63 µM | 
17 | Cc1ccc2c(O)c(C(=O)N[C@@H](CCCNC(=N)N)C(=O)N3CCC[C@H]3C(N)=O)cnc2n1 [Compound 17] | 900 µM |  |  | 
18 | N=C(N)NCCC[C@H](NC(=O)c1cccnc1O)C(=O)N1CCC[C@H]1C(N)=O [Compound 18] | 452 µM |  |  | 
19 | N=C(N)NCCC[C@H](NC(=O)c1ccccc1O)C(=O)N1CCC[C@H]1C(N)=O [Compound 19] |  | 8 µM | 2450 µM | 
20 | N=C(N)NCCC[C@H](NC(=O)c1cc(O)ccc1O)C(=O)N1CCC[C@H]1C(N)=O [Compound 20] | 20 µM |  |  | 
21 | N=C(N)NCCC[C@H](NC(=O)c1cc(-c2ccccc2)ccc1O)C(=O)N1CCC[C@H]1C(N)=O [Compound 21] |  | 18 µM | 149 µM | 
